According to ChEMBL document CHEMBL5137060, “Glioblastoma: Current Status, Emerging Targets, and Recent Advances” (J Med Chem, 2022):

Key:
[1] = Plasma stability in mouse relative to control; assay type: ADME, cell-free
[2] = Plasma stability in monkey relative to control; assay type: ADME, cell-free, Macaca mulatta; settings: rhesus monkey
[3] = Plasma stability in human relative to control; assay type: ADME, cell-free
DBTRG-05MG = test: Cytotoxicity against human DBTRG cells; assay type: functional, cell-based
U-251 [4] = test: Cytotoxicity against human U-251 cells; assay type: functional, cell-based
[5] = Cytotoxicity against human U-87 MG cells; assay type: functional, cell-based, U-87MG ATCC
Astrocyte = test: Cytotoxicity against NHA cells; assay type: functional, cell-based; settings: Homo sapiens
[6] = Cytotoxicity against patient derived xenografted D456 cells; assay type: functional, cell-based; settings: Homo sapiens
[7] = Cytotoxicity against human glial cells; assay type: toxicity, cell-based, Glial cell
C6 = test: Anticancer activity against rat C6 cells; assay type: functional, cell-based
[8] = Cytotoxicity against patient derived glioblastoma T78 cells; assay type: functional; settings: Homo sapiens, read-out: LC50 (the source's name)
[9] = Inhibition of cell migration of patient derived glioblastoma T86 spheroid cell culture treated at 10 uM for 24 hrs by propidium iodide staining method relative to control; assay type: functional; settings: Homo sapiens
[10] = Cytotoxicity against patient derived glioblastoma T111 cells; assay type: functional; settings: Homo sapiens, read-out: LC50 (the source's name)
[11] = Inhibition of cell migration of patient derived glioblastoma T78 spheroid cell culture treated at 10 uM for 24 hrs by propidium iodide staining method relative to control; assay type: functional; settings: Homo sapiens
[12] = Cytotoxicity against patient derived glioblastoma T86 cells; assay type: functional; settings: Homo sapiens, read-out: LC50 (the source's name)
[13] = Antiproliferative activity against human U-343MG cells assessed as inhibition of cell growth incubated for 72 hrs by MTS assay; assay type: functional, cell-based
[14] = Antiproliferative activity against human ANGM-CSS cells assessed as inhibition of cell growth incubated for 72 hrs by MTS assay; assay type: functional, cell-based
[15] = Antiproliferative activity against human U-87 MG cells assessed as inhibitionof cell growth incubated for 24 to 72 hrs by MTT assay; assay type: functional, cell-based, U-87MG ATCC
Translocator protein = Translocator protein (Homo sapiens, UniProt P30536); test: Binding affinity to TSPO (unknown origin)
Sequence of Translocator protein (P30536 whole entry): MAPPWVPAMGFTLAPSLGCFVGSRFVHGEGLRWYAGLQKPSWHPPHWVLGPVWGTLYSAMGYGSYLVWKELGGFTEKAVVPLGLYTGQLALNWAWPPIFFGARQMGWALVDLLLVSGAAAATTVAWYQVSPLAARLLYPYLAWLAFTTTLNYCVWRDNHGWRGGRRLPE

T98G [16] = test: Cytotoxicity against human T98G cells; assay type: functional
U-87 MG = test: Cytotoxicity against human U87 cells; assay type: functional, U-87MG ATCC
[17] = Cytotoxicity against human 091214 cells assessed cell growth inhibition incubated for 48 hrs by CCK8 assay; assay type: functional, cell-based; settings: Homo sapiens, 091214, 48 h
U-251 [18] = test: Cytotoxicity against human U-251 cells assessed cell growth inhibition incubated for 48 hrs by CCK8 assay; assay type: functional, cell-based; settings: U-251, 48 h
U-251 [19] = test: Inhibition of cell migration of human U251N cells relative to control; assay type: functional
U-251 [20] = test: Cytotoxicity against human U251N cells incubated for 24 to 72 hrs by fluorescence microscopic analysis; assay type: functional, cell-based
[21] = Growth inhibition of human U373 cells; assay type: functional; settings: U373 MG
Hs 683 = test: Growth inhibition of human Hs 683 cells; assay type: functional
[22] = Antiproliferative activity against human U-87 MG cells incubated for 72 hrs by MTT assay; assay type: functional, cell-based, U-87MG ATCC
SNB-19 = test: Cytotoxicity against human SNB-19 cells assessed as cell viability measured after 48 hrs by countess-II FL Hemocytometer method; assay type: functional, cell-based; settings: SNB-19, 48 h
LN-229 = test: Cytotoxicity against human LN-229 cells assessed as cell viability measured after 48 hrs by countess-II FL Hemocytometer method; assay type: functional, cell-based; settings: LN-229, 48 h
[23] = Cytotoxicity against U87MG Human EGFR vIII cells; assay type: functional, cell-based
[24] = Cytotoxicity against human U-87G cells assessed as cell viability; assay type: functional, cell-based; settings: U87G
T98G [25] = test: Cytotoxicity against human T98G cells assessed as cell viability; assay type: functional, cell-based
U-251 [26] = test: Cytotoxicity against human U-251MG cells assessed as cell viability; assay type: functional, cell-based
[27] = Water solubility of the compound; assay type: physicochemical

`CCOC(=O)[C@H](CCC(=O)C=[N+]=[N-])NC(=O)[C@@H](N)Cc1c[nH]c2ccccc12` gave a Stability [1] of 0%, a Stability [2] of 4% and a Stability [3] of 12%.

With `CC(C)OC(=O)[C@H](CCC(=O)C=[N+]=[N-])NC(=O)[C@@H](N)Cc1c[nH]c2ccccc12` the Stability [1] was 0%, the Stability [2] was 10% and the Stability [3] was 61%.

Work on `O=C1c2cc(-c3cccnc3)ncc2C(=O)c2c1c(-c1ccccn1)nn2-c1ccc(F)cc1F` yielded an IC50 (DBTRG-05MG) of 2.5 µM, an IC50 (U-251 [4]) of 2.5 µM and an IC50 [5] of 2.5 µM.

`O=C(Nc1ccc(Cl)c(C(F)(F)F)c1)c1ccc(Cl)cc1` showed an IC50 (Astrocyte) of 14.2 µM and an IC50 [6] of 2.96 µM.

Work on `CCOC(=O)/C=C/c1ccc(/C=C/c2ccc(O)c(O)c2)cc1` yielded an IC50 [7] of 86 µM and an IC50 (C6) of 3.9 µM.

For `O=C1CC(c2ccc(-c3cc[nH]n3)s2)c2cc(N3CCNC3=O)ccc2N1` (stereo not drawn), the IC50 (Astrocyte) was 4.11 µM and the IC50 [6] was 1.59 µM.

`CCn1c(-c2nonc2N)nc2cncc(CNC3CCNCC3)c21` gave a CC50 [8] of 115 µM, an inhibition at 10 µM [9] of 60.4% and a CC50 [10] of 112 µM. It also gave an inhibition at 10 µM [11] of 37.8% and a CC50 [12] of 456 µM.

With `O=C1Nc2ccc(NC(=O)[C@H](NC(=O)c3cccn(Cc4ccc(F)c(F)c4)c3=O)c3ccccc3)cc2/C1=C/c1cnc[nH]1` the IC50 [13] was 0.0497 µM and the IC50 [14] was 0.044 µM.

`C[C@@H]1C2CCCC3CC[C@]4(C)OO[C@]32[C@H](O[C@@H]1OCCCN=C=S)O4` (stereo partly drawn) showed an IC50 [15] of 7.41 µM.

With `Cc1ccc(CN(C)C(=O)c2nc(-c3ccccc3Cl)c3ccccc3n2)cc1` the Ki (Translocator protein) was 0.00399 µM.

`O=C1Nc2ccccc2C12CCN[C@@H]2c1ccccc1` (stereo partly drawn) gave an IC50 (Astrocyte) of 101 µM and an IC50 [6] of 41.1 µM.

`O=C(NO)C(c1ccccc1)c1c(-c2ccc3ccccc3c2)[nH]c2ccccc12` (stereo not drawn) showed a GI50 (T98G [16]) of 1.9 µM and a GI50 (U-87 MG) of 21.3 µM.

Work on `C[C@@H]1O[C@@H](O[C@H]2CC[C@H](O[C@H]3[C@H](O)C[C@H](c4ccc5c(c4O)C(=O)c4ccc(C[C@](C)(CC(=O)O)O[C@H]6CC[C@H](O[C@H]7CCC(=O)[C@H](C)O7)[C@H](C)O6)c(O)c4C5=O)O[C@@H]3C)O[C@H]2C)CCC1=O` [GRINCAMYCIN B] yielded an IC50 [17] of 3.11 µM and an IC50 (U-251 [18]) of 2.04 µM.

Work on `O=C1Nc2ccccc2C1Cc1ccc2cc[nH]c2c1` (stereo not drawn) yielded an IC50 (Astrocyte) of 24.7 µM and an IC50 [6] of 21.3 µM.

For `NC(=O)CC(c1ccc(NC(=O)c2cccnc2)cc1)c1cccc2[nH]ccc12` (stereo not drawn), the IC50 (Astrocyte) was 27.3 µM and the IC50 [6] was 8.65 µM.

`COC(=O)/C=C/c1ccc(/C=C/c2ccc(O)c(O)c2)cc1` showed an IC50 [7] of 142 µM and an IC50 (C6) of 5.4 µM.

In the case of `COc1cc(NC(C)CCCNC(=O)CCCC(=O)NO)c2ncccc2c1` (stereo not drawn), the “inhibition (INH)” value (U-251 [19]) is reported as 42% and the IC50 (U-251 [20]) is reported as 10 µM.

With `Cc1ccc(C(C(=O)NO)c2c(-c3ccc4ccccc4c3)[nH]c3ccccc23)cc1C` (stereo not drawn) the GI50 (T98G [16]) was 7.5 µM and the GI50 (U-87 MG) was 6.7 µM.

In the case of `O=C(c1ccccc1)c1[nH]c2[nH]cnc(=O)c2c1-c1ccccc1`, the GI50 [21] is reported as at most 0.01 µM and the GI50 (Hs 683) is reported as 0.01 µM.

For `O=C(NO)c1ccc(Cn2c(=O)n(CCc3ccccc3)c(=O)c3ccccc32)cc1`, the IC50 [22] was 1.56 µM.

Compound `O=C(COc1ccc2c(=O)c(-c3ccccc3)coc2c1)N=c1[nH]c2ccccc2[nH]1` has an IC50 (Astrocyte) of 4.77 µM and an IC50 [6] of 6.58 µM.

Compound `CC(C)(C)[Si](O[C@H]1[C@H](O)C[C@](O)(CO)C[C@H]1O[Si](c1ccccc1)(c1ccccc1)C(C)(C)C)(c1ccccc1)c1ccccc1` has an IC50 (SNB-19) of 28.2 µM and an IC50 (LN-229) of 10.7 µM.

Compound `CC(C)(C)OC(=O)N1CC[C@@]2(C(=O)Nc3ccccc32)[C@@H]1c1cccc(Nc2ccc(CO)c(S(C)(=O)=O)c2)c1` has an IC50 [23] of 1.78 µM and an IC50 (U-251 [4]) of 2.23 µM.

Compound `C[C@H]1O[C@@H](O[C@H]2CC[C@]3(C=O)[C@H]4CC[C@]5(C)[C@@H](C6CCC(=O)OC6)CC[C@]5(O)[C@@H]4CC[C@]3(O)C2)[C@H](O)[C@@H](O)[C@@H]1O` (stereo partly drawn) has an IC50 [24] of 40 µM, an IC50 (T98G [25]) of 50 µM and an IC50 (U-251 [26]) of 70 µM.

`CCOC(=O)[C@H](CCC(=O)C=[N+]=N)NC(=O)OC(C)OC(=O)C(C)(C)C` (stereo partly drawn) gave a solubility [27] of over 25 mg/mL.
